Measured values published in US20070142298A1, “Tetrapeptide regulating blood glucose level in diabetes mellitus” (SANKT-PETERBURGSKAYA OBSCHESTVENNAYA ORGANIZATSIYA …, priority 2003, published 2007).
Residues, ends and D or L forms follow the SMILES beside them.

Tests used:
Type in all cases: in vivo
[1] = tested on: rats with alloxan diabetes; assay: Course of alloxan diabetes in rats, treatment variant (Example 2)
Method: After estimation of glucose concentration in the blood all the animals were divided at random into 2 groups. Then all the animals were exposed to single intravenous administration 1 ml of alloxan solution (“Spofa”) in dose 35 mg/kg. In 15 days control animals were administered once a day intraperitoneally with 0.3 ml 0.9% NaCl solution, rats of the main group were administered with LysGlu-Asp-Trp-NH2 in dose 3 μg (in 0.3 ml of 0.9% NaCl solution) per rat during 11 days.

[2] = tested on: patients with diabetes mellitus; assay: Clinical application in patients with diabetes mellitus (Example 8)
Method: The investigation was carried out in 36 patients aged from 16 to 83 years (7 men, 29 women). In 23 patients there was diagnosed type 1 diabetes, in 13 patients—type 2 diabetes. The disease duration varied from 1 year to 30 years. 32 patients received insulin. The majority of the patients suffering diabetes mellitus entered the hospital decompensated. Blood glucose level in these patients on an empty stomach oscillated from […]; the glycosylated haemoglobin—from 7.8 to 12.7%. All the patients were prescribed a rigid diet. All the patients were stratified randomly into 2 groups, with respect to age, sex, duration and stage of the disease (Table 7). Alongside with standard method of treatment 16 patients were prescribed Lys-Glu-Asp-Trp-NH2 tetrapeptide in dose of 10 μg (in 1 ml of 0.9% NaCl solution) intramuscularly once a day for 10 days. 4 patients suffering type 2 diabetes mellitus were prescribed together with standard treatment course Lys-Glu-Asp-Trp-NH2 tetrapeptide in dose of 100 μg (1 tablet) twice a day before meals during 10 days. Patients of the control group were administered with 1 ml of 0.9% of NaCl solution as a placebo following the same scheme.

[3] = tested on: rats with alloxan diabetes; assay: Tetrapeptide in different doses on the course of alloxan diabetes in rats (Example 4); details: for Glucose concentration in blood, initial level: before alloxan; for Glucose concentration in blood, after tetrapeptide administration, day 1 / Glucose concentration in blood, after tetrapeptide administration, day 4 / Glucose concentration in blood, after tetrapeptide administration, day 7 / Glucose concentration in blood, after tetrapeptide administration, day 14 / Glucose concentration in blood, after tetrapeptide administration, day 21: 7 days; for Decrease of glucose level: dose 10 μg
Method: The study was performed on 23 white mongrel male rats weighing on average […]. All the animals were subject to single intravenous administration of 1 ml of alloxan (“Spofa”) solution in dose of […].
Then the animals were divided at random into 3 groups. Control animals were intraperitoneally administered with 0.3 ml of 0.9% NaCl solution once a day. Rats of the second and third group were administered with tetrapeptide Lys-Glu-Asp-Trp-NH2 in dose of 1 μg (in 0.1 ml of 0.9% NaCl solution) and 10 μg (in 1.0 ml of 0.9% NaCl solution) per rat during 7 days.

[4] = tested on: rats with alloxan diabetes; assay: Insulin level in blood of rats with alloxan diabetes (Example 5)
Method: The experiment was held on 18 white mongrel male rats weighing on average 375±35 g. After the estimation of the blood glucose level all the animals were divided at random into 2 groups. Then all the animals were subjected to single intravenous injection with 1 ml of alloxan solution (“Spofa”) in dose of 35 mg/kg. 15 days later control animals were daily intraperitonealy administered with 0.3 ml of 0.9% NaCl solution, rats of the main group—with tetrapeptide Lys-Glu-Asp-Trp-NH2 in dose of 3 μg (in 0.3 ml of 0.9% NaCl) per rat during 11 days.

[5] = tested on: rats with alloxan diabetes; assay: Course of alloxan diabetes in rats, prophylaxis and treatment variant (Example 3)
Method: The experiment was carried out on 15 white mongrel male rats with the average body weight 375±35 g. The animals were divided randomly into 2 groups. Control animals were administered once a day intravenously with 0.3 ml of 0.9% NaCl solution, while the main group animals were administered with LysGlu-Asp-Trp-NH2 tetrapeptide in dose of 3 μg (in 0.3 ml of 0.9% NaCl solution) per rat during 7 days. After that all the animals were subject to single intravenous administration of 1 ml of alloxan solution (“Spofa”) in dose 35 mg/kg. Lys-Glu-Asp-Trp-NH2 tetrapeptide had been administered during 3 days following alloxan administration. After that […] were subject to the second Lys-Glu-Asp-Trp-NH2 tetrapeptide course from 18 day till day 28 (total 11 days) in the same dose.

[6] = tested on: rats with alloxan diabetes; assay: Glucose tolerance test (sugar curve) in alloxan diabetes rats (Example 6); details: 44th day after course completion
Method: The study was conducted on 13 male rats, enrolled in the previous tests (treatment variants—44 days after completion of tetrapeptide Lys-Glu-Asp-Trp-NH2 administration). 7 healthy rats with the same body weight constituted a separate group. All the animals were administered intravenously with 1 ml of 2% glucose solution, after that glucose concentration in their blood was estimated.

[7] = tested on: rats with alloxan diabetes; assay: Insulin effect on blood glucose level in alloxan diabetes rats after tetrapeptide (Example 7)
Method: The study was conducted on 13 male rats, enrolled in the previous trial (treatment variant—28 days after completion of Lys-Glu-Asp-Trp-NH2 tetrapeptide administration). 8 healthy rats of the similar body weight constituted a separate group. All the animals were administered intravenously with insulin (0.3 units), and glucose concentration in their blood was estimated hereafter.

[8] = 3 μg per rat i.p. daily, 11 days
[9] = before alloxan and before treatment
[10] = 16 insulin-treated patients, 10 μg i.m. once a day, 10 days

## NCCCC[C@H](N)C(=O)N[C@@H](CCC(=O)O)C(=O)N[C@@H](CC(=O)O)C(=O)N[C@@H](Cc1c[nH]c2ccccc12)C(N)=O [Tetrapeptide Lys-Glu-Asp-Trp-NH2, lysyl-glutamyl-aspartyl-tryptophane amid] (H-KEDW-NH2)
[1]; [8]
  Glucose concentration in the blood, 8 days since the onset of tetrapeptide administration: 254.5 ± 16.2 mg %
  Glucose concentration in the blood, upon completion of peptide administration, day 1: 222.5 ± 10.3 mg %
  Glucose concentration in the blood, upon completion of peptide administration, day 9: 183.9 ± 10.5 mg %
  Glucose concentration in the blood, upon completion of peptide administration, day 18: 236.7 ± 10.3 mg %
  Glucose concentration in the blood, upon completion of peptide administration, day 28: 221.5 ± 11.2 mg %
  Glucose concentration in the blood, upon completion of peptide administration, day 44: 210.8 ± 9.3 mg %
  Glucose concentration in the blood, upon completion of peptide administration, day 58: 198.9 mg %
[1]; [9]
  Glucose concentration in the blood, initial level: 81.1 ± 3.8 mg %
[1]; before start of tetrapeptide
  Glucose concentration in the blood, 15 days after alloxan administration: 333.6 ± 12.4 mg %
[1]; vs control, alloxan diabetes animals
  Lethality decrease: two-fold lethality decrease
[1]; vs control, range 30-47.7%
  Decrease of the blood glucose level throughout the whole study: 38.4%
[2]; 8 patients out of 16 treated with insulin
  Reduction of the insulin daily dose, on average: 8 units
[2]; [10]
  Decreased insulin dose necessary to achieve compensation (number of patients): 8
  Increased insulin dose necessary to achieve compensation (number of patients): 2
  The same insulin dose necessary to achieve compensation (number of patients): 6
[2]; Patient K.
  Decrease of daily insulin dose as compared to the initial level: 26 units
[2]; Patient K., at discharge
  Coagulogram indices: pronounced improvement in coagulogram indices
[2]; Patient K., type 2, 10 μg i.m. 10 days, 18th day, 10 μmol/l on admission
  Blood glucose level on an empty stomach at discharge: 5.9 mM
[2]; Patient K., 82 units on admission
  Daily dose of insulin at discharge: 56 units
[2]; Patient L.
  Blood glucose level after completion of the treatment course: remained within the norm
  Dose of diabeton: reduced two-fold
[2]; Patient L., type 2, oral 100 μg twice a day with 2 diabeton tablets, 11 μmol/l on admission
  Glucose level on an empty stomach on the second day: 6 mM
[2]; Patient M.
  Decrease of daily insulin dose as compared to the initial level: 8 units
[2]; Patient M., 40 units on admission
  Daily norm of insulin at discharge: 32 units
[2]; tetrapeptide in tablets
  Compensation in patients treated with oral anti-diabetic medicine: full compensation
[2]; tetrapeptide in tablets, 100 μg twice a day, 10 days
  Reduction of the dose of insulin: 25 units
[2]; tetrapeptide in tablets, patients on oral anti-diabetic medicine
  Reduction of dose of oral anti-diabetic preparations: reduced practically two-fold
[3]; 1 mkg group
  Glucose concentration in blood, after alloxan administration, day 7: 245.6 ± 12.3 mg %
  Glucose concentration in blood, after alloxan administration, day 14: 261.7 ± 12.3 mg %
  Glucose concentration in blood, initial level: 80.6 ± 2.8 mg %
[3]; 1 mkg per rat
  Glucose concentration in blood, after tetrapeptide administration, day 1: 228.3 ± 10.7 mg %
  Glucose concentration in blood, after tetrapeptide administration, day 4: 244.4 ± 12.2 mg %
  Glucose concentration in blood, after tetrapeptide administration, day 7: 269.4 ± 8.6 mg %
  Glucose concentration in blood, after tetrapeptide administration, day 14: 268.8 ± 12.4 mg %
  Glucose concentration in blood, after tetrapeptide administration, day 21: 272.5 ± 9.9 mg %
[3]; 10 mkg group
  Glucose concentration in blood, after alloxan administration, day 7: 247.2 ± 14.0 mg %
  Glucose concentration in blood, after alloxan administration, day 14: 252.2 ± 7.9 mg %
  Glucose concentration in blood, initial level: 83.9 ± 3.4 mg %
[3]; 10 mkg per rat
  Glucose concentration in blood, after tetrapeptide administration, day 1: 193.3 ± 6.7 mg %
  Glucose concentration in blood, after tetrapeptide administration, day 4: 212.2 ± 7.3 mg %
  Glucose concentration in blood, after tetrapeptide administration, day 7: 205.6 ± 8.4 mg %
  Glucose concentration in blood, after tetrapeptide administration, day 14: 240.0 ± 7.9 mg %
  Glucose concentration in blood, after tetrapeptide administration, day 21: 248.3 ± 13.5 mg %
[3]; day 1
  Decrease of glucose level: 30%
[3]; day 7
  Decrease of glucose level: 26%
[4]; [8]
  Insulin content in blood, 8 days since the onset of tetrapeptide administration: 3.1 ± 1.1 mkIU/ml
  Insulin content in blood, after the completion of tetrapeptide administration, day 1: 3.6 ± 0.7 mkIU/ml
  Insulin content in blood, after the completion of tetrapeptide administration, day 9: 3.2 ± 0.5 mkIU/ml
  Insulin content in blood, after the completion of tetrapeptide administration, day 18: 4.3 ± 0.5 mkIU/ml
  Insulin content in blood, after the completion of tetrapeptide administration, day 28: 4.1 ± 0.6 mkIU/ml
  Insulin content in blood, after the completion of tetrapeptide administration, day 44: 3.9 ± 1.1 mkIU/ml
[4]; 8 days of administration, higher than control
  Insulin content in the blood relative to control group: 3.9 fold
[4]; after course completion, no insulin in controls
  Amount of insulin in the blood at following estimations: 13-18%
[4]; [9]
  Insulin content in blood, initial level: 23.8 ± 2.8 mkIU/ml
[4]; before start of tetrapeptide
  Insulin content in blood, 15 days after alloxan administration: 1.5 ± 0.4 mkIU/ml
[5]; 2nd course (from 18th till 28th day)
  Glucose concentration in blood, after alloxan administration, day 28: 77.3 ± 1.3 mg %
[5]; 28th, 33rd, 40th day
  Blood glucose level after the second course: complete normalisation of the blood glucose level
[5]; after 1st course
  Glucose concentration in blood, after alloxan administration, day 5: 247.3 ± 17.2 mg %
  Glucose concentration in blood, after alloxan administration, day 14: 261.5 ± 39.5 mg %
[5]; after 2nd course
  Glucose concentration in blood, after alloxan administration, day 33: 90.7 ± 5.2 mg %
  Glucose concentration in blood, after alloxan administration, day 40: 107.7 ± 6.4 mg %
[5]; before treatment
  Glucose concentration in blood, initial level: 76.8 ± 1.1 mg %
[5]; during 2nd course (from 18th till 28th day)
  Glucose concentration in blood, after alloxan administration, day 21: 159.0 ± 32.6 mg %
[5]; healthy rats before alloxan, 3 μg per rat daily
  Glucose concentration in blood, 7 days from the onset of tetrapeptide administration (1 course): 94.0 ± 0.8 mg %
[5]; healthy rats, 7 days, before alloxan
  Effect on blood glucose level of healthy animals: did not lead to the decrease of blood glucose level
[6]
  Glucose tolerance test, 5 min after glucose administration: 301.2 ± 10.5
  Glucose tolerance test, 30 min after glucose administration: 205.1 ± 11.8
  Glucose tolerance test, 60 min after glucose administration: 201.5 ± 13.2
  Glucose tolerance test, 120 min after glucose administration: 164.2 ± 12.8
[6]; before i.v. 1 ml of 2% glucose
  Glucose tolerance test, initial level: 210.8 ± 9.3
[7]; 28th day after course completion, before insulin
  Glucose concentration in blood, initial level: 221.5 ± 11.2 mg %
[7]; 28th day after course completion, insulin 0.3 units i.v.
  Glucose concentration in blood, 30 minutes after insulin administration: 123.6 ± 8.3 mg %
[7]; alloxan diabetes animals
  Decrease of the glucose level after insulin administration as compared to the control group: nearly two-fold decrease of the glucose level
